Test results as given in patent US7276337B2, “Compositions and methods for visual ribonuclease detection assays” (Integrated DNA Technologies, Inc., priority 2000, dated 2007).

What was measured:
Ribonuclease A = target: T1, Ribonuclease A (Bos taurus, UniProt P61823); assay: Visual detection ribonuclease assay, cleavage of Substrate ODN by RNase A; type: biochemical, mammalian; set-up: key to Sensitivity of Substrate ODN to Ribonuclease A, relative signal intensity: +++ = maximum intensity; ++ = moderate intensity; + = faint but above background; − = negative (identical to background); conditions: Substrate 500 nM; for Sensitivity of Substrate ODN to Ribonuclease A, relative signal intensity: visual inspection, UV excitation, 37° C. 60 minutes
T1 sequence (P61823 27-150): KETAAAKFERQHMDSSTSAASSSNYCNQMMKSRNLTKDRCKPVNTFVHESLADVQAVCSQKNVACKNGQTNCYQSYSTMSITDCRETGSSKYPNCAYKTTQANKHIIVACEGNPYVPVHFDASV
Method: Nuclease assays were conducted using the methods of the invention. SEQ ID NO:2 and SEQ ID NO:30 oligonucleotides were individually mixed in 1× Assay Buffer at a concentration of 500 nM (50 pmoles ODN in 100 ul volume) in thin-walled, UV transparent microtubes. RNase A (1 ul, diluted to 0;1 ug/ul) was added to the respective Assay Mixes. […] Assays were set up directly in microtubes as follows:
Assay Mixes were incubated at room temperature for 10 minutes. Assays were visually examined for fluorescence emission directly in the assay tubes without further manipulation. Tubes were suspended above an ultraviolet light source, visually inspected, and photographed using a digital camera. […] The “positive” and “control” reactions appeared markedly different and were easily distinguished. […] The “positive” and “control” reactions were not markedly different to visual inspection.
(§1) Nuclease assays were conducted using the method of the invention with both visual and fluorometric detection methods. Substrates were individually mixed in 1× Assay Buffer at a concentration of 50 nM (50 pmoles oligonucleotide in 1 ml volume) for fluorometric detection or at a concentration of 500 nM (50 pmoles of oligonucleotide in 100 ul volume) for visual detection. Test nucleases were added to respective Assay Mixes beginning at 1 ul stock reagent and proceeding with a 1:10 serial dilution until undetectable. Reaction mixes were incubated at 37° C. for 60 minutes. Fluorometric detection was performed as outlined in Example 2. Visual detection was performed as outlined in Example 1.
Table 6: Sensitivity of different Substrate ODNs to Ribonuclease A. A series of Substrate ODNs were synthesized and tested for sensitivity to RNase A degradation. Stock enzyme was serial diluted to achieve final concentrations of 1 ng/ml, 100 pg/ml, and 10 pg/ml as indicated. Reactions were examined for fluorescence emission by visual inspection using an ultraviolet (UV) light source for excitation. Results were scored as +++, ++, +, or − based on relative signal intensity.
(§2) It is commonly accepted that fluorometry provides for high sensitivity. To be useful, the visual method must also offer high sensitivity. Assays were conducted using the method of the invention with visual detection. Substrate SEQ ID NO:30 was mixed in 1× Assay Buffer at a concentration of 500 nM (50 pmoles ODN in 100 ul volume) in thin-walled, UV transparent tubes. […] Dilutions of stock RNase A, RNase 1, and RNase T1 were made in water. Undiluted and diluted nuclease (1 ul) was added to respective 100 ul Assay Mixes resulting in final dilution factors of 10^−2, 10^−3, 10^−4, 10^−5, 10^−6, and 10^−7. Assays were incubated at room temperature for 10 minutes and visually examined for fluorescence emission with UV excitation. […] The experiment took about 30 minutes to perform, including 15 minutes to set-up serial dilutions, 10 minutes incubation, and 5 minutes to visualize and photograph. Thus the method of the invention allows for a rapid, simple, and convenient visual assay for the presence of ribonuclease activity.

Ribonuclease T1 = target: T2, Ribonuclease T1 (Aspergillus oryzae, UniProt P00651); assay: Visual detection ribonuclease assay, cleavage of Substrate ODN by RNase T1; type: biochemical; set-up: key to Sensitivity of Substrate ODN to Ribonuclease T1, relative signal intensity: +++ = maximum intensity; ++ = moderate intensity; + = faint but above background; − = negative (identical to background); conditions: visual inspection, UV excitation, Substrate 500 nM, 37° C. 60 minutes
T2 sequence (P00651 27-130): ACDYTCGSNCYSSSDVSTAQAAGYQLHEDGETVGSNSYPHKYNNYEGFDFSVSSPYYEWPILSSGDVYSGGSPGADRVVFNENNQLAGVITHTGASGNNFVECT
Method: as §1
Table 7: Sensitivity of different Substrate ODNs to Ribonuclease T1. A series of Substrate ODNs were synthesized and tested for sensitivity to RNase T1 degradation. Stock enzyme was serial diluted to achieve final concentrations of 0.001 units/ml, 0.0001 units/ml, and 0.00001 units/ml as indicated. Reactions were examined for fluorescence emission by visual inspection using an ultraviolet (UV) light source for excitation. Results were scored as +++, ++, +, or − based on relative signal intensity.
as §2

RNase A = target: T3, RNase A (Bos taurus, UniProt P61823); assay: Fluorometric detection nuclease assay, RNase A; type: biochemical, mammalian; conditions: RNase A 0.33 ug/ml; Substrate 50 nM; 37° C. 1 hour; 490 nm excitation
T3 sequence (P61823 27-150): T1 sequence (P61823 27-150)
Method: (§3) Nuclease assays were conducted using the method of the invention. SEQ ID NO:2 and SEQ ID NO:3 oligonucleotides were individually mixed in 1× Assay Buffer at a concentration of 50 nM (150 pmoles oligonucleotide in 3 mls volume). […] Assays were set up directly in cuvettes as follows:
(§4) Assay Mixes were incubated at 37° C. for 1 hour. Fluorescence emission spectra were measured using a PTI fluorometer with 490 nm excitation. Substrate SEQ ID NO:2 (having chimeric RNA-DNA composition) reacted with both DNase I (undesired) and RNase A (desired).
Nuclease assays were conducted using the method of the invention. The Substrate (SEQ ID NO:30) was mixed in 1× Assay Buffer at a concentration of 50 nM (150 pmoles oligonucleotide in 3 mls volume). Test nucleases were added to respective Assay Mixes, including 1 ul of RNase A (1 ug), 1 ul of RNase 1 (100 units), or 1 ul of RNase T1 (1000 units). […] Assays were set up directly in cuvettes as follows:
Assay Mixes were incubated at 37° C. for 1 hour. Assays were transferred to cuvettes and fluorescence emission at 520 nm was measured using a PTI fluorometer with 490 nm excitation. Substrate SEQ ID NO:30, a preferred Substrate of the invention, reacted with (i.e., detected) all three RNase enzymes, verifying that Substrate compositions of the invention are sensitive to a variety of RNase enzymes.
Substrate SEQ ID NO:30 was mixed in 1× Assay Buffer at a concentration of 50 nM (150 pmoles oligonucleotide in 3 mls volume). RNase A was added at final concentrations of 10 ng/ml, 2 ng/ml, 1 ng/ml, and 0.4 ng/ml. […] Assay mixes were incubated at 37° C. in a cuvette directly in a PTI fluorometer. Fluorescence emission at 520 nm with 490 nm excitation was measured over time. At high nuclease concentrations, the reaction goes rapidly to completion. At lower nuclease concentrations, the reaction rate decreases but with longer incubation times an easily detectable signal is generated. Substrate concentration is fixed and input enzyme (i.e., the test sample) varies. Since the background is stable (monitored in the control reaction), use of extended incubation periods will increase the sensitivity of the assay.
Assays were conducted using the method of the invention with fluorometric detection. Substrate SEQ ID NO:30 was mixed in 1× Assay Buffer at a concentration of 50 nM (50 pmoles ODN in 1.0 ml volume) in RNase-free disposable cuvettes. […] Dilutions of stock RNase A, RNase 1, and RNase T1 were made in water. Undiluted and diluted nuclease (1 ul) was added to respective 1.0 ml Assay Mixes resulting in final dilution factors of 10^−3, 10^−4, 10^−5, 10^−6, 10^−7, 10^−8, and 10^−9. Assays were incubated at 37° C. for 1 hour and examined for fluorescence emission at 520 nm using 490 nm excitation in a PTI fluorometer. Final enzyme concentration reported notes the lowest concentration tested that was reproducibly positive with a signal:noise ratio of at least 2:1.

DNase I = DNase I (Bos taurus, UniProt P00639); assay: Fluorometric detection nuclease assay, DNase I (nuclease specificity); type: biochemical; conditions: DNase I 2 units/ml; Substrate 50 nM; 37° C. 1 hour; 490 nm excitation
Sequence of DNase I (P00639 23-282): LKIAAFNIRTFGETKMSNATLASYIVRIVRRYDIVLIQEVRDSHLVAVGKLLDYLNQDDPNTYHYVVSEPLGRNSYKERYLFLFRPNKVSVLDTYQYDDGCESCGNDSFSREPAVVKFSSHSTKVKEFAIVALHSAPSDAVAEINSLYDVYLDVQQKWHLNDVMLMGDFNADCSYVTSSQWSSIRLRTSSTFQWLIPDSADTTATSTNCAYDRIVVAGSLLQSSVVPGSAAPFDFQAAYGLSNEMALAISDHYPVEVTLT
Method: as §3, §4

[1] = test system: Substrate oligonucleotide SEQ ID NO:30; assay: RNase testing of commercially obtained reagents, visual detection; type: biochemical; set-up: key: +++ = maximum intensity; ++ = moderate intensity; + = faint but above background; − = negative (identical to background); conditions: reagent diluted 1:10 with Assay Buffer, 50 pmoles Substrate SEQ ID NO:30, 60 minutes at 37° C., UV
Method: Enzymes were obtained from New England Biolabs (NEB) or Ambion as indicated. Test sample (10 ul) was mixed with 1× buffer (90 ul) for a final volume of 100 ul with 50 pmoles of Substrate SEQ ID NO:30 in 0.5 ml RNase-free microtubes. Assay Mixes were incubated 60 minutes at 37° C. and visually examined under UV excitation for fluorescence emission. After scoring for results, 1 ul (1 ug) of RNase A was added to each tube. The Assay was incubated an additional 5 minutes at 37° C. and re-scored. The addition of RNase A represents a control for the absence of an Assay inhibitor and validates negative results. The “plus RNase A” control was omitted whenever the primary assay was already positive.
Table 9: RNase testing of commercially available reagents. A series of commercially available reagents were diluted 1:10 with Assay Buffer to a final volume of 100 ul. An RNase detection assay was performed using the method of the invention with Substrate oligonucleotide SEQ ID NO:30. Reactions were examined for fluorescence emission by visual inspection using an ultraviolet (UV) light source for excitation. Results were scored as +++, ++, +, or − based on relative signal intensity. As a control, RNase A (1 ug) was added to negative reactions and the Assay was re-scored. ND=not done.

Row | Substance | Sensitivity of Substrate ODN to Ribonuclease A, relative signal intensity (Ribonuclease A; RNase A 10 pg/ml) | Sensitivity of Substrate ODN to Ribonuclease A, relative signal intensity (Ribonuclease A; RNase A 100 pg/ml) | Sensitivity of Substrate ODN to Ribonuclease A, relative signal intensity (Ribonuclease A; RNase A 1 ng/ml) | Sensitivity of Substrate ODN to Ribonuclease T1, relative signal intensity (Ribonuclease T1; RNase T1 10^−3 units/ml) | Sensitivity of Substrate ODN to Ribonuclease T1, relative signal intensity (Ribonuclease T1; RNase T1 10^−4 units/ml) | Sensitivity of Substrate ODN to Ribonuclease T1, relative signal intensity (Ribonuclease T1; RNase T1 10^−5 units/ml) | Reactivity with RNase A (fluorometer) (RNase A) | Reactivity with DNase I (fluorescence emission spectra) (DNase I) | Fluorescence emission by visual inspection in the presence of RNase (Ribonuclease A; RNase A 1.0 ug/ml, room temperature 10 minutes, UV light source) | Fluorescence emission by visual inspection in the absence of RNase (control reaction) (Ribonuclease A; no nuclease, room temperature 10 minutes, UV light source) | Assay Results (RNase activity in reagent, relative signal intensity) [1]
1 | 5′ Fluorescein-AAuAA-Dabcyl 3′ (NAAUAAN; 5' fluorescein and 3' Dabcyl labels, nucleotide chemistry not given here) [SEQ ID NO:3] | − | + | ++ | − | − | − | retained reactivity | did not react |  |  | 
2 | 5′ Fluorescein-AuAA-Tamra 3′ (NAUAAN; 5' fluorescein and 3' TAMRA labels, nucleotide chemistry not given here) [SEQ ID NO:2, reference compound] |  |  |  |  |  |  | reacted | reacted | changed somewhat in color and slightly increased in intensity | emitted light | 
3 | T7 RNA Polymerase: commercial enzyme reagent from Ambion, sold as RNase-free |  |  |  |  |  |  |  |  |  |  | −
